Laboratory results from patent publication US8288381B2, “N-9 substituted purine compounds, compositions and methods of use” (Genentech, Inc., priority 2009, dated 2012).

What was measured:
[1] = molecular target: mTOR enzyme (mTOR(1360-2549)+GBL) (Homo sapiens, UniProt P42345); assay: In vitro mTOR kinase assay (TR-FRET); assay type: biochemical; conditions: Ki apparent, Morrison ATP-competitive tight binding equation; 8 uM ATP, 0.25 nM mTOR+GBL; read-out: activity level (Ki) in the mTOR kinase assay
Method: The kinase activity of mTOR enzyme is assessed by incubating purified recombinant enzyme (mTOR(1360-2549)+GBL, prepared in-house) in a reaction mixture containing ATP, MnCl2, and a fluorescently labeled mTOR substrate, e.g., GFP-4E-BP1 (Invitrogen, product #PR8808A). The reaction is stopped by an addition of a Terbium-labeled phospho-specific antibody, e.g., Tb-labeled anti-p4E-BP1 T37/T46, (Invitrogen, product #PR8835A), EDTA, and TR-FRET buffer solution (Invitrogen, Product #PR3756B). Product formation is detected by way of time-resolved fluorescence resonance energy transfer (TR-FRET), which occurs when the phosphorylated substrate and labeled antibody are in close proximity due to phospho-specific binding. Enzymatic activity is measured as an increase in TR-FRET signal using a Perkin Elmer Envision plate reader. The assay is performed in a 384-well Proxiplate Plus (Perkin Elmer. Product #6008269) using the following protocol:
Compound activity is tested in 10 point dose curves starting at the highest final concentration of 10 uM. They are serially diluted in 100% DMSO prior to further dilution with assay buffer. The reaction mixture (8 uls) containing 0.25 nM mTOR+GBL enzyme, 400 nM GFP-4E-BP1, 8 uM ATP, 50 mM Hepes pH 7.5, 0.01% Tween 20, 10 mM MnCl2, 1 mM EGTA, 1 mM DTT, 1% DMSO (+/−compound) is incubated at room temperature for 30 minutes. 8 μL of solution containing 2 nM Tb-anti-p4E-BP1 antibody & 10 mM EDTA diluted TR-FRET buffer is then added and incubated for 30 minutes to stop the reaction. The plate is scanned with the Envision plate reader. Ki values are calculated in Assay Explorer using the Morrison ATP-competitive tight binding equation for Ki apparent determination.

[2] = test system: AKT serine-473 phosphorylation in PC-3 cells; assay: In vitro phospho-AKT serine 473 cellular assay; assay type: cell-based; conditions: Homo sapiens, 0.5 h; PC-3 cells stimulated with EGF, 30 minutes compound incubation; read-out: EC50 activity level (50% decrease of S473 AKT phosphorylation)
Method: The assay measures a test compound's inhibition of AKT serine-473 phosphorylation in human prostate adenocarcinoma derived PC-3 (ATCC CRL-1435) cells that have been stimulated with epidermal growth factor (EGF).
The PC-3 cell line is maintained in RPMI1640 media supplemented with 10% FBS, 2 mM Glutamine, and 10 mM HEPES pH 7.4 at 37° C. in a 5% CO2 humidified incubator.
Cells are seeded in 384-well plates at 7,000 cells/well in 50 μl growth media. After 24 hours, growth media is removed and replaced with RPMI1640 containing no FBS. Cells are treated with 10 concentrations of test compounds or DMSO alone for controls (final DMSO concentration 0.5%) and incubated at 37° C. for 30 minutes. Cells are then stimulated for 10 minutes with 100 ng/ml EGF (final concentration). One column of controls is not stimulated with EGF to observe the signal ratio between stimulated and non-stimulated cells. After 10 minutes, compounds and stimulation media are removed and replaced with 25 μl lysis buffer containing protease inhibitors and phosphatase inhibitors. This buffer contains detergent to bring about cellular disruption. […] Following the transfer of lysate to the MSD plate, AKT in the lysate is captured on the coated antibody by incubation on a shaker at 4° C. for 16 hours. Following the capture step the plate is washed and then incubated for two hours with an antibody to S473 phosphorylated AKT which is conjugated with a Sulfo-Tag. This tag gives a signal when in proximity to the electrode on the base of the MSD plate. Binding the tagged antibody to the captured protein allow detection on a MSD reader.
The EC50 is defined as the concentration at which a given compound achieves 50% decrease of the measured levels of S473 AKT phosphorylation. EC50 values are calculated using MDL Assay Explorer 3.0.1.8 fitting a sigmoidal curve with a variable slope.

PC3 cells = assay: In vitro cell proliferation assay; assay type: cell-based; conditions: Homo sapiens, PC-3; with PC3 cells
Method: Efficacy of Formula I compounds were measured by a cell proliferation assay employing the following protocol:
1. An aliquot of 20 μl of cell culture containing about 10^3 cells (PC3 or MDAMB361.1) in medium was deposited in each well of a 384-well, opaque-walled plate.
2. Control wells were prepared containing medium and without cells; Cells were allowed to settle overnight.
3. The compound was added to the experimental wells and incubated for 3 days.
4. The plates were equilibrated to room temperature for approximately 30 minutes.
5. A volume of CellTiter-Glo Reagent equal to the volume of cell culture medium present in each well was added.
6. The contents were mixed for 2 minutes on an orbital shaker to induce cell lysis.
7. The plate was incubated at room temperature for 20 minutes to stabilize the luminescence signal.
8. Luminescence was recorded and reported in graphs as RLU=relative luminescence units.
Alternatively, cells were seeded at optimal density in a 96 well plate and incubated for 4 days in the presence of test compound. Alamar Blue™ was subsequently added to the assay medium, and cells were incubated for 6 h before reading at 544 nm excitation, 590 nm emission. IC50 values were calculated using a sigmoidal dose response curve fit.

Chain of mTOR enzyme (mTOR(1360-2549)+GBL) (P42345 1360-2549): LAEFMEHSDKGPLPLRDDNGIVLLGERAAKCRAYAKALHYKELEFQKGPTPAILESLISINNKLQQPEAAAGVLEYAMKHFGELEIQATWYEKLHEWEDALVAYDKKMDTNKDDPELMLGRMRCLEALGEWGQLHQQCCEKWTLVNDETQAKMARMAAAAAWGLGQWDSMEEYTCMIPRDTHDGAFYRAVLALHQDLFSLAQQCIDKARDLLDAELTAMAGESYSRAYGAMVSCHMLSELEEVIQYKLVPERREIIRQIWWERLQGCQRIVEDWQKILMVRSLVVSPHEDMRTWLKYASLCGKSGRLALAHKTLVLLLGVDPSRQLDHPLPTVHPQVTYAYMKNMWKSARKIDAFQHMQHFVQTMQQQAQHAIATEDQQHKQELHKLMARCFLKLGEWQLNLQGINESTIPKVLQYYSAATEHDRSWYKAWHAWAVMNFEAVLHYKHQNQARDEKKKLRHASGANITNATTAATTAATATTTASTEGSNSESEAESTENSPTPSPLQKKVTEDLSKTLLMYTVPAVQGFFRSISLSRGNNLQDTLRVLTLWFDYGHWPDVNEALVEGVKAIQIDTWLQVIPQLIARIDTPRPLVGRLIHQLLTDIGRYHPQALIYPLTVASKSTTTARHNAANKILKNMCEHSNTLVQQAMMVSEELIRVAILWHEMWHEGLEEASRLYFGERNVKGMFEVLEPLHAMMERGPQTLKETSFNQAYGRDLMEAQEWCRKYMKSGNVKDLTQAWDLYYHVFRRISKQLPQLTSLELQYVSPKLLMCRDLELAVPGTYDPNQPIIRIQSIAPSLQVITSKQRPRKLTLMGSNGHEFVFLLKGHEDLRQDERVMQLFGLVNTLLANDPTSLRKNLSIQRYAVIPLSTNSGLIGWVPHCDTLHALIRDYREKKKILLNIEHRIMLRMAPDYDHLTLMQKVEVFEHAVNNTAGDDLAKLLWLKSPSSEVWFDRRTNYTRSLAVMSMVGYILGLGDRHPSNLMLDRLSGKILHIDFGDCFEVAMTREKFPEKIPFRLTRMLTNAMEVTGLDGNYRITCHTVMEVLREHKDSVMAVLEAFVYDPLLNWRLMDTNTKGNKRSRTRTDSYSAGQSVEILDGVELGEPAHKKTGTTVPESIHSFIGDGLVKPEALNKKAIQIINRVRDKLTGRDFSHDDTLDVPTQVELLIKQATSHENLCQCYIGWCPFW
Chain of mTOR enzyme (mTOR(1360-2549)+GBL) (Q9BVC4 whole entry partner): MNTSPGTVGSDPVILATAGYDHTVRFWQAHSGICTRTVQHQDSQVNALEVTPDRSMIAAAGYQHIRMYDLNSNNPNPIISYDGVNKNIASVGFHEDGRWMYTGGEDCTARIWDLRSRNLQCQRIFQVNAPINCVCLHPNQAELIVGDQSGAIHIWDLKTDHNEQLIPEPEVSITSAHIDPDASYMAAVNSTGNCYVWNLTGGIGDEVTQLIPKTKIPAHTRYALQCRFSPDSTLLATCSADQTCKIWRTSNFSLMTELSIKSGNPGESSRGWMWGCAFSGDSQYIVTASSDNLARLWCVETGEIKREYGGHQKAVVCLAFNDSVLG

| Structure (SMILES) | Ki [1] [nM] | EC50 [2] [nM] | IC50 (PC3 cells) [nM] |
| --- | --- | --- | --- |
| CCNC(=O)Nc1ccc(-c2nc(N3CCOC[C@@H]3C)c3nc(C4CC4)n(CC)c3n2)cc1 [Compound 106, (S)-1-(4-(8-cyclopropyl-9-ethyl-6-(3-methylmorpholino)-9H-purin-2-yl)phenyl)-3-ethylurea] | 8 | 15 | 441 |
| CCNC(=O)Nc1ccc(-c2nc(N3CCOC[C@@H]3C)c3nc(C4(F)CCOCC4)n(CC)c3n2)cc1 [Compound 110, (S)-1-ethyl-3-(4-(9-ethyl-8-(4-fluorotetrahydro-2H-pyran-4-yl)-6-(3-methylmorpholino)-9H-purin-2-yl)phenyl)urea] | 5 | 5 | 163 |
| CCNC(=O)Nc1ccc(-c2nc(N3CCOC[C@@H]3C)c3nc(C4(O)CNC4)n(C)c3n2)cc1 [Compound 105, (S)-1-ethyl-3-(4-(8-(3-hydroxyazetidin-3-yl)-9-methyl-6-(3-methylmorpholino)-9H-purin-2-yl)phenyl)urea] | 74 | – | – |
| CCNC(=O)Nc1ccc(-c2nc(N3CCOC[C@@H]3C)c3nc(C4(O)COC4)n(C)c3n2)cc1 [Compound 101, (S)-1-ethyl-3-(4-(8-(3-hydroxyoxetan-3-yl)-9-methyl-6-(3-methylmorpholino)-9H-purin-2-yl)phenyl)urea] | 7 | 30 | 282 |
| CCn1c(C2CC2)nc2c(N3CCOC[C@@H]3C)nc(-c3ccc(NC(=O)NC4COC4)cc3)nc21 [Compound 113, (S)-1-(4-(8-cyclopropyl-9-ethyl-6-(3-methylmorpholino)-9H-purin-2-yl)phenyl)-3-(oxetan-3-yl)urea] | 8 | 8 | 1700 |
| CCNC(=O)Nc1ccc(-c2nc(N3CCOC[C@@H]3C)c3nc(C4(F)COC4)n(C)c3n2)cc1 [Compound 108, (S)-1-ethyl-3-(4-(8-(3-fluorooxetan-3-yl)-9-methyl-6-(3-methylmorpholino)-9H-purin-2-yl)phenyl)urea] | 3 | 9 | 232 |
| CCNC(=O)Nc1ccc(-c2nc(N3CCOC[C@@H]3C)c3nc(C4CC4)n(C)c3n2)cc1 [Compound 102, (S)-1-(4-(8-cyclopropyl-9-methyl-6-(3-methylmorpholino)-9H-purin-2-yl)phenyl)-3-ethylurea] | 8 | 37 | 207 |
| CCNC(=O)Nc1ccc(-c2nc(N3CCOC[C@@H]3C)c3nc(-c4cncnc4)n(CC)c3n2)cc1 [Compound 107, (S)-1-ethyl-3-(4-(9-ethyl-6-(3-methylmorpholino)-8-(pyrimidin-5-yl)-9H-purin-2-yl)phenyl)urea] | 3 | 7 | 112 |
| CCn1c(C2CC2)nc2c(N3CCOC[C@@H]3C)nc(-c3ccc(Nc4cccc(=O)[nH]4)cc3)nc21 [Compound 112, (S)-6-(4-(8-cyclopropyl-9-ethyl-6-(3-methylmorpholino)-9H-purin-2-yl)phenylamino)pyridin-2(1H)-one] | 6 | 6 | 853 |
| CCNC(=O)Nc1ccc(-c2nc(N3CCOC[C@@H]3C)c3nc(C4(O)CCOCC4)n(C)c3n2)cc1 [Compound 103, (S)-1-ethyl-3-(4-(8-(4-hydroxytetrahydro-2H-pyran-4-yl)-9-methyl-6-(3-methylmorpholino)-9H-purin-2-yl)phenyl)urea] | 5 | 29 | 120 |
| CCNC(=O)Nc1ccc(-c2nc(N3CCOC[C@@H]3C)c3nc(C4(F)COC4)n(CC)c3n2)cc1 [Compound 109, (S)-1-ethyl-3-(4-(8-(3-fluorooxetan-3-yl)-9-ethyl-6-(3-methylmorpholino)-9H-purin-2-yl)phenyl)urea] | 3 | 8 | 218 |
| CCNC(=O)Nc1ccc(-c2nc(N3CCOC[C@@H]3C)c3nc(C4(O)COC4)n(CC)c3n2)cc1 [Compound 111, (S)-1-ethyl-3-(4-(9-ethyl-8-(3-hydroxyoxetan-3-yl)-6-(3-methylmorpholino)-9H-purin-2-yl)phenyl)urea] | 4 | 4 | 269 |
| CCNC(=O)Nc1ccc(-c2nc(N3CCOC[C@@H]3C)c3nc(C4(O)CCOCC4)n(CC)c3n2)cc1 [Compound 104, (S)-1-ethyl-3-(4-(9-ethyl-8-(4-hydroxytetrahydro-2H-pyran-4-yl)-6-(3-methylmorpholino)-9H-purin-2-yl)phenyl)urea] | 4 | 10 | 115 |
